According to ChEMBL document CHEMBL1201862, “PubChem BioAssay data set” (2004):
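Step 1: Grow cells in 96-well plates. Step 2: Expose to compound for 48 hours at 5 concentrations. Step 3: Interpolate endpoints linearly; if unreached, use highest concentration. Abbreviation: GI50, concentration required for 50% inhibition of growth.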 Activity calls are given as the source filed them. No stated cut-off is given here; in the data, active = GI50 up to about 1.1 µM and inactive = higher.

Tests used:
Test in all cases: NCI-60 cell line screen, 48 h
[1] = tested on: 786-0
[2] = tested on: A498
[3] = tested on: A549
[4] = tested on: ACHN
[5] = tested on: BT-549
[6] = tested on: CAKI-1
[7] = tested on: CCRF-CEM
[8] = tested on: COLO 205
[9] = tested on: DU-145
[10] = tested on: EKVX
[11] = tested on: HCC 2998
[12] = tested on: HCT-116
[13] = tested on: HCT-15
[14] = tested on: HL-60
[15] = tested on: HOP-62
[16] = tested on: HOP-92
[17] = tested on: HT-29
[18] = tested on: Hs-578T
[19] = tested on: IGROV-1
[20] = tested on: K562
[21] = tested on: KM12
[22] = tested on: LOX IMVI
[23] = tested on: M14
[24] = tested on: MCF7
[25] = tested on: MDA-MB-231
[26] = tested on: MDA-MB-435
[27] = tested on: MDA-N
[28] = tested on: MOLT-4
[29] = tested on: Malme-3M
[30] = tested on: NCI-H226
[31] = tested on: NCI-H23
[32] = tested on: NCI-H460
[33] = tested on: NCI-H522
[34] = tested on: NCI/ADR-RES
[35] = tested on: OVCAR-3
[36] = tested on: OVCAR-4
[37] = tested on: OVCAR-5
[38] = tested on: OVCAR-8
[39] = tested on: PC-3
[40] = tested on: RPMI-8226
[41] = tested on: RXF 393
[42] = tested on: SF-268
[43] = tested on: SF-295
[44] = tested on: SF-539
[45] = tested on: SK-MEL-28
[46] = tested on: SK-MEL-2
[47] = tested on: SK-MEL-5
[48] = tested on: SK-OV-3
[49] = tested on: SN12C
[50] = tested on: SNB-19
[51] = tested on: SNB-75
[52] = tested on: SR
[53] = tested on: SW-620
[54] = tested on: T47D
[55] = tested on: TK-10
[56] = tested on: U-251
[57] = tested on: UACC-257
[58] = tested on: UACC-62
[59] = tested on: UO-31

Question: With `CC(C)=CC(Cc1ccccc1)S(=O)(=O)c1nc2ccccc2s1` (centres undefined) as the molecule, how does the GI50 [1] read?
Answer: The GI50 was 14.6 µM (inactive).

Question: What about the GI50 [2] of the same molecule?
Answer: Its GI50 is 19.9 µM (inactive).

Question: What about the GI50 [3] of the same molecule?
Answer: The GI50 was 23.4 µM (inactive).

Question: What about the GI50 [4] of the same molecule?
Answer: The GI50 was 18.8 µM (inactive).

Question: What about the GI50 [5] of the same molecule?
Answer: The GI50 was 14.6 µM (inactive).

Question: What about the GI50 [6] of the same molecule?
Answer: The GI50 was 4.05 µM (inactive).

Question: And the GI50 [7]?
Answer: Its GI50 is 2.37 µM (inactive).

Question: What about the GI50 [8] of the same molecule?
Answer: Its GI50 is 17 µM (inactive).

Question: What about the GI50 [9] of the same molecule?
Answer: The GI50 was 17.7 µM (inactive).

Question: What about the GI50 [10] of the same molecule?
Answer: The GI50 was 19.6 µM (inactive).

Question: And the GI50 [11]?
Answer: Its GI50 is 19.2 µM (inactive).

Question: What about the GI50 [12] of the same molecule?
Answer: The GI50 was 14 µM (inactive).

Question: What about the GI50 [13] of the same molecule?
Answer: Its GI50 is 17.7 µM.

Question: What about the GI50 [14] of the same molecule?
Answer: Its GI50 is 2.84 µM (inactive).

Question: And the GI50 [15]?
Answer: Its GI50 is 28.8 µM (inactive).

Question: And the GI50 [16]?
Answer: Its GI50 is 16.6 µM (inactive).

Question: What about the GI50 [17] of the same molecule?
Answer: Its GI50 is 19.3 µM (inactive).

Question: And the GI50 [18]?
Answer: The GI50 was 29.6 µM (inactive).

Question: What about the GI50 [19] of the same molecule?
Answer: Its GI50 is 19.7 µM (inactive).

Question: What about the GI50 [20] of the same molecule?
Answer: The GI50 was 12.6 µM (inactive).

Question: And the GI50 [21]?
Answer: The GI50 was 18.7 µM (inactive).

Question: What about the GI50 [22] of the same molecule?
Answer: Its GI50 is 2.69 µM (inactive).

Question: What about the GI50 [23] of the same molecule?
Answer: Its GI50 is 12.5 µM (inactive).

Question: What about the GI50 [24] of the same molecule?
Answer: Its GI50 is 14.7 µM (inactive).

Question: What about the GI50 [25] of the same molecule?
Answer: The GI50 was 19.8 µM (inactive).

Question: What about the GI50 [26] of the same molecule?
Answer: Its GI50 is 11 µM (inactive).

Question: And the GI50 [27]?
Answer: Its GI50 is 8.13 µM (inactive).

Question: What about the GI50 [28] of the same molecule?
Answer: The GI50 was 2.98 µM (inactive).

Question: And the GI50 [29]?
Answer: The GI50 was 14.5 µM (inactive).

Question: And the GI50 [30]?
Answer: Its GI50 is 13.3 µM (inactive).

Question: And the GI50 [31]?
Answer: The GI50 was 13.5 µM (inactive).

Question: And the GI50 [32]?
Answer: The GI50 was 21.3 µM (inactive).

Question: And the GI50 [33]?
Answer: Its GI50 is 11.3 µM (inactive).

Question: And the GI50 [34]?
Answer: Its GI50 is 19.7 µM (inactive).

Question: And the GI50 [35]?
Answer: Its GI50 is 15.3 µM (inactive).

Question: What about the GI50 [36] of the same molecule?
Answer: The GI50 was 15.9 µM (inactive).

Question: What about the GI50 [37] of the same molecule?
Answer: The GI50 was 19.2 µM (inactive).

Question: And the GI50 [38]?
Answer: The GI50 was 15.4 µM (inactive).

Question: And the GI50 [39]?
Answer: The GI50 was 16.7 µM (inactive).

Question: What about the GI50 [40] of the same molecule?
Answer: Its GI50 is 10.5 µM (inactive).

Question: And the GI50 [41]?
Answer: The GI50 was 19.7 µM (inactive).

Question: What about the GI50 [42] of the same molecule?
Answer: Its GI50 is 15.6 µM (inactive).

Question: What about the GI50 [43] of the same molecule?
Answer: Its GI50 is 26.6 µM (inactive).

Question: And the GI50 [44]?
Answer: Its GI50 is 16.2 µM (inactive).

Question: And the GI50 [45]?
Answer: The GI50 was 16.1 µM (inactive).

Question: What about the GI50 [46] of the same molecule?
Answer: The GI50 was 13.1 µM (inactive).

Question: And the GI50 [47]?
Answer: The GI50 was 13.6 µM (inactive).

Question: What about the GI50 [48] of the same molecule?
Answer: The GI50 was 22.4 µM (inactive).

Question: And the GI50 [49]?
Answer: Its GI50 is 12 µM (inactive).

Question: What about the GI50 [50] of the same molecule?
Answer: The GI50 was 17.4 µM (inactive).

Question: And the GI50 [51]?
Answer: Its GI50 is 16.6 µM (inactive).

Question: What about the GI50 [52] of the same molecule?
Answer: Its GI50 is 1.98 µM (inactive).

Question: What about the GI50 [53] of the same molecule?
Answer: Its GI50 is 18.7 µM (inactive).

Question: And the GI50 [54]?
Answer: Its GI50 is 23.6 µM (inactive).

Question: What about the GI50 [55] of the same molecule?
Answer: The GI50 was 20 µM (inactive).

Question: What about the GI50 [56] of the same molecule?
Answer: Its GI50 is 15.9 µM (inactive).

Question: What about the GI50 [57] of the same molecule?
Answer: Its GI50 is 21 µM (inactive).

Question: What about the GI50 [58] of the same molecule?
Answer: Its GI50 is 17.2 µM (inactive).

Question: What about the GI50 [59] of the same molecule?
Answer: The GI50 was 13.8 µM (inactive).
